Target: T1, Recombinant human liver GK1 (GST-GK) (Homo sapiens, UniProt P35557)
T1 construct: made in house; host or cells: E. coli
T1 sequence (P35557 1-466 isoform P35557-2): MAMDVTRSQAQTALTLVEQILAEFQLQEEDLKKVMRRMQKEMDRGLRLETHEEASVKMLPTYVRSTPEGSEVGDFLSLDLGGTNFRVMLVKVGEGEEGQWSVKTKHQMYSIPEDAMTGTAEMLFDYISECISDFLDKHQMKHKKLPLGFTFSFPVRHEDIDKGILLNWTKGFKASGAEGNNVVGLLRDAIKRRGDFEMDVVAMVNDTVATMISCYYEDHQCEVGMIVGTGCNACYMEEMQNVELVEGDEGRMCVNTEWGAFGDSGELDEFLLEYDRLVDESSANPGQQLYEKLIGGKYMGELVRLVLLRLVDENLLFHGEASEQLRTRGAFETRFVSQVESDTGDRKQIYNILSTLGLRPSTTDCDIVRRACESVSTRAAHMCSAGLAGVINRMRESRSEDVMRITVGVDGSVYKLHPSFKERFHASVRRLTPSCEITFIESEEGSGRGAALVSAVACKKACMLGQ
Assay: In vitro glucokinase activity (G6PDH-coupled NADH assay)
Type: biochemical
Settings: for SC1.5 (concentration of activator that produced a 50% increase in the activity of GK): 30° C., 5 mM D-glucose, 10% DMSO
Description: Glucokinase In Vitro Assay Protocol: Glucokinase (GK) was assayed by coupling the production of glucose-6-phosphate to the generation of NADH with glucose-6-phosphate dehydrogenase (G6PDH, 0.75-1 kunits/mg; Boehringer Mannheim, Indianapolis, Ind.) from Leuconostoc mesenteroides as the coupling enzyme (Scheme 2).
Recombinant human liver GK1 was expressed in E. coli as a glutathione S-transferase fusion protein (GST-GK) [Liang et al, 1995] and was purified by chromatography over a glutathione-Sepharose 4B affinity column using the procedure provided by the manufacturer (Amersham Pharmacia Biotech, Piscataway, N.J.).
The assay was conducted at 30° C. in a flat bottom 96-well tissue culture plate from Costar (Cambridge, Mass.) with a final incubation volume of 120 μL. The incubation reaction contained the following: 25 mM Hepes buffer (pH 7.1), 25 mM KCl, 5 mM D-glucose, 1 mM ATP, 1.8 mM NAD, 2 mM MgCl2, 1 μM sorbitol-6-phosphate, 1 mM dithiothreitol, test drug or 10% dimethylsulfoxide, ˜7 units/ml G6PDH, and GK (see below). All organic reagents were >98% pure and were from Boehringer Mannheim with the exceptions of D-glucose and Hepes which were from Sigma Chemical Co, St Louis, Mo. Test compounds were dissolved in dimethylsulfoxide and were added to the incubation reaction minus GST-GK in a volume of 12 μL to yield a final dimethylsulfoxide concentration of 10%. This mix was pre-incubated in the temperature controlled chamber of a SPECTRAmax 250 microplate spectrophotometer (Molecular Devices Corporation, Sunnyvale, Calif.) for 10 min to allow temperature equilibrium and then the reaction was started by the addition of 20 μL GST-GK.
After addition of enzyme, the increase in optical density (OD) at 340 nm was monitored spectrophotometrically to determine the rate of change (OD340 per min). The GK activity (OD340/min) in control wells (10% DMSO minus GK activators) was compared with the activity in wells containing test GK activators, and the concentration of activator that produced a 50% increase in the activity of GK, i.e., the SC1.5, was calculated. The table below provides the in vitro glucokinase activity for the compounds in the Examples: […]

Structure (SMILES)	SC1.5 (concentration of activator that produced a 50% increase in the activity of GK) [µM]	fold act. @ 30 μM (at 30 μM test compound) [fold]
CC[C@H](C)CC(C(=O)Nc1ccn(C[C@@H]2COC(C)(C)O2)n1)N1CC(Oc2ccccc2Cl)=CC1=O (mixture of isomers) [Example 248, (S)-2-[4-(2-Chloro-phenoxy)-2-oxo-2,5-dihydro-pyrrol-1-yl]-4-methyl-hexanoic acid [1-((R)-2,2-dimethyl-[1,3]dioxolan-4-ylmethyl)-1H-pyrazol-3-yl]-amide]	0.304	
CC[C@H](C)CC(C(=O)Nc1ccn(C[C@@H](O)CO)n1)N1CC(Oc2ccccc2Cl)=CC1=O (mixture of isomers) [Example 249, (S)-2-[4-(2-Chloro-phenoxy)-2-oxo-2,5-dihydro-pyrrol-1-yl]-4-methyl-hexanoic acid [1-((R)-2,3-dihydroxy-propyl)-1H-pyrazol-3-yl]-amide]	0.125	
CC(C)(O)Cn1ccc(NC(=O)[C@H](C[C@H]2C[C@H](C)C2)N2CC(Oc3ccccc3Cl)=CC2=O)n1 (single isomer, unassigned) [Example 215]	0.014	
CC(C)(O)Cn1ccc(NC(=O)[C@@H](C[C@H]2C[C@H](C)C2)N2CC(Oc3ccccc3Cl)=CC2=O)n1 (single isomer, unassigned) [Example 216]	2.715	
CC[C@H](C)C[C@H](C(=O)Nc1ccn(C[C@@H](O)CO)n1)N1CC(Oc2ccccc2Cl)=CC1=O (single isomer, unassigned) [Example 250]	6.017	
CC[C@H](C)C[C@@H](C(=O)Nc1ccn(C[C@@H](O)CO)n1)N1CC(Oc2ccccc2Cl)=CC1=O (single isomer, unassigned) [Example 251]	0.056	
CC[C@@H](C)C[C@H](C(=O)Nc1ccn(C[C@@H](O)CO)n1)N1CC(Oc2ccccc2Cl)=CC1=O (single isomer, unassigned) [Example 254]	16.154	
CCOc1ccc(F)c(OC2=CC(=O)N([C@@H](CC3CCOCC3)C(=O)Nc3ccn(CC(C)(C)O)n3)C2)c1F (single isomer, unassigned) [Example 257]	0.006	
CCOc1ccc(F)c(OC2=CC(=O)N([C@H](CC3CCOCC3)C(=O)Nc3ccn(CC(C)(C)O)n3)C2)c1F (single isomer, unassigned) [Example 258]	4.435	
COC1=CC(=O)N([C@@H](CC2CCCC2)C(=O)Nc2ccn(CC(C)(C)O)n2)C1 [Example 1, (S)-3-Cyclopentyl-N-[1-(2-hydroxy-2-methyl-propyl)-1H-pyrazol-3-yl]-2-(4-methoxy-2-oxo-2,5-dihydro-pyrrol-1-yl)-propionamide]	3.771	
COC1=CC(=O)N([C@@H](CC2CCCC2)C(=O)Nc2ncc(Cl)s2)C1 [Example 2, (S)-N-(5-Chloro-thiazol-2-yl)-3-cyclopentyl-2-(4-methoxy-2-oxo-2,5-dihydro-pyrrol-1-yl)-propionamide]	1.672	
COC1=CC(=O)N([C@@H](CC2CCCC2)C(=O)Nc2nc3ccccc3s2)C1 [Example 3, (S)-N-Benzothiazol-2-yl-3-cyclopentyl-2-(4-methoxy-2-oxo-2,5-dihydro-pyrrol-1-yl)-propionamide]	> 30	1.3
COC1=CC(=O)N([C@@H](CC2CCCC2)C(=O)Nc2nc(C)ns2)C1 [Example 4]	6.186	
COC1=CC(=O)N([C@@H](CC2CCCC2)C(=O)Nc2ccn(CC(C)(C)OC)n2)C1 [Example 5, (S)-3-Cyclopentyl-N-[1-(2-methoxy-2-methyl-propyl)-1H-pyrazol-3-yl]-2-(4-methoxy-2-oxo-2,5-dihydro-pyrrol-1-yl)-propionamide]	3.15	
COC1=CC(=O)N([C@@H](CC2CCCC2)C(=O)Nc2ccn(C)n2)C1 [Example 6, (S)-3-Cyclopentyl-2-(4-methoxy-2-oxo-2,5-dihydro-pyrrol-1-yl)-N-(1-methyl-1H-pyrazol-3-yl)-propionamide]	12.645	
COC1=CC(=O)N([C@@H](CC2CCCC2)C(=O)Nc2ccn(CCNC(=O)OC(C)(C)C)n2)C1 [Example 7, (2-{3-[(S)-3-Cyclopentyl-2-(4-methoxy-2-oxo-2,5-dihydro-pyrrol-1-yl)-propionylamino]-pyrazol-1-yl}-ethyl)-carbamic acid t-butylester]	13.732	
COC1=CC(=O)N([C@@H](CC2CCCC2)C(=O)Nc2ncc(F)s2)C1 [Example 8, (S)-3-Cyclopentyl-N-(5-fluoro-thiazol-2-yl)-2-(4-methoxy-2-oxo-2,5-dihydro-pyrrol-1-yl)-propionamide]	1.365	
COC1=CC(=O)N([C@@H](CC2CCCC2)C(=O)Nc2cnccn2)C1 [Example 9, (S)-3-Cyclopentyl-2-(4-methoxy-2-oxo-2,5-dihydro-pyrrol-1-yl)-N-pyrazin-2-yl-propionamide]	6.54	
COC(=O)c1ccc(NC(=O)[C@H](CC2CCCC2)N2CC(OC)=CC2=O)nc1 [Example 10, 6-[(S)-3-Cyclopentyl-2-(4-methoxy-2-oxo-2,5-dihydro-pyrrol-1-yl)-propionylamino]-nicotinic acid methyl ester]	1.855	
COC1=CC(=O)N([C@@H](CC2CCCC2)C(=O)Nc2ccc(C(=O)O)cn2)C1 [Example 11, 6-[(S)-3-Cyclopentyl-2-(4-methoxy-2-oxo-2,5-dihydro-pyrrol-1-yl)-propionylamino]-nicotinic acid]	3.99	
COC1=CC(=O)N([C@@H](CC2CCCC2)C(=O)Nc2ccn(Cc3cccc(C#N)c3)n2)C1 [Example 12, (S)-N-[1-(3-Cyano-benzyl)-1H-pyrazol-3-yl]-3-cyclopentyl-2-(4-methoxy-2-oxo-2,5-dihydro-pyrrol-1-yl)-propionamide]	3.591	
COC[C@H](C)OC1=CC(=O)N([C@@H](CC2CCCC2)C(=O)Nc2ccn(CC(C)(C)O)n2)C1 [Example 13, (S)-3-Cyclopentyl-N-[1-(2-hydroxy-2-methyl-propyl)-1H-pyrazol-3-yl]-2-[4-((S)-2-methoxy-1-methyl-ethoxy)-2-oxo-2,5-dihydro-pyrrol-1-yl]-propionamide]	4.062	
CC(C)(O)Cn1ccc(NC(=O)[C@H](CC2CCCC2)N2CC(OCc3ccccc3)=CC2=O)n1 [Example 14, (S)-2-(4-Benzyloxy-2-oxo-2,5-dihydro-pyrrol-1-yl)-3-cyclopentyl-N-[1-(2-hydroxy-2-methyl-propyl)-1H-pyrazol-3-yl]-propionamide]	0.368	
CC(C)OC1=CC(=O)N([C@@H](CC2CCCC2)C(=O)Nc2ccn(CC(C)(C)O)n2)C1 [Example 15, (S)-3-Cyclopentyl-N-[1-(2-hydroxy-2-methyl-propyl)-1H-pyrazol-3-yl]-2-(4-isopropoxy-2-oxo-2,5-dihydro-pyrrol-1-yl)-propionamide]	1.832	

— patent US7741327B2 (Hoffmann-La Roche Inc., priority 2008, dated 2010)
